For the assay, the target named is T1, FXR ligand binding domain (Homo sapiens, UniProt Q96RI1).
T1 construct: made in house; host or cells: E. coli BL21 (pLysS)
T1 sequence (Q96RI1 193-472 isoform Q96RI1-2): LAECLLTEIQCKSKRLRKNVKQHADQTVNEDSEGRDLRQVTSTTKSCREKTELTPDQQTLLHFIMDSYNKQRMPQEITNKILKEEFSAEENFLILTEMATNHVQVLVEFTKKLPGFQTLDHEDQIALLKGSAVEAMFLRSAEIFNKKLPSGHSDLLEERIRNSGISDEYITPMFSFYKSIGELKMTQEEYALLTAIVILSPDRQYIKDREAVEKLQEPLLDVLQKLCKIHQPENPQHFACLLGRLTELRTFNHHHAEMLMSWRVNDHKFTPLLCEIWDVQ
The experiment in a line: Radioligand Binding Assay (scintillation proximity radioligand displacement). The note with it: GST-FXR LBD fusion protein on SPA beads, test compound 6×10^−9 M to 2.5×10^−5 M. Here is the method:
The following tests were carried out in order to determine the activity of the compounds of formula (I). Background information on the binding assay can be found in: Nichols J S et al. “Development of a scintillation proximity assay for peroxisome proliferator-activated receptor gamma ligand binding domain”, (1998) Anal. Biochem. 257: 112-119.
Bacterial and mammalian expression vectors were constructed to produce glutathione-s-transferase (GST) and Gal4 DNA binding domain (GAL) proteins fused to the ligand binding domain (LBD) of human FXR (aa 193-473). To accomplish this, the portions of the sequences encoding the FXR LBD were amplified by polymerase chain reaction (PCR) from a full-length clone by PCR and then subcloned into the plasmid vectors. The final clone was verified by DNA sequence analysis.
The induction, expression, and subsequent purification of GST-LBD fusion protein was performed in E. coli strain BL21 (pLysS) cells by standard methods (Current Protocols in Molecular Biology, Wiley Press, ed. Ausubel et al.).
Radioligand Binding Assay
Binding of test substances to the FXR ligand binding domain was assessed in a radioligand displacement assay. The assay was performed in a buffer consisting of 50 mM Hepes, pH 7.4, 10 mM NaCl, 5 mM MgCl2, 0.01% CHAPS. For each reaction well in a 96-well plate, 40 nM of GST-FXR LBD fusion protein was bound to […] glutathione ytrium silicate SPA beads (PharmaciaAmersham) in a final volume of […] by shaking. A radioligand (e.g., 20 nM of 2,N-dicyclohexyl-2-[2-(2,4 dimethoxy-phenyl)-benzoimidazol-1-yl]-acetamide) and test compounds were added, and scintillation proximity counting was performed. All binding assays were performed in 96-well plates and the amount of bound ligand was measured on a Packard TopCount using OptiPlates (Packard). Dose response curves were performed within a range of test compound concentrations from 6×10^−9 M to 2.5×10^−5 M and IC50 values were calculated.
(In a scintillation proximity assay essentially only radioactivity close to the scintillant gives light.)
As a reminder, the IC50 is the midpoint of a concentration-inhibition curve. Low values mean inhibition by little substance, high ones a need for much substance. On to `Fc1cc2nc(-c3cccnc3OCC3CCCC3)n(Cc3cccc(Cl)c3)c2cc1F` [Example 12, 1-(3-Chloro-benzyl)-2-(2-cyclopentylmethoxy-pyridin-3-yl)-5,6-difluoro-1H-benzoimidazole], for which the IC50 turned out to be 1.5 µM.

`O=C(Nc1cc(Cl)ccc1-c1nc2cc(F)c(F)cc2n1CC1CCCCC1)c1ccc(-c2nnn[nH]2)c(F)c1` [Example 85, N-[5-Chloro-2-(1-cyclohexylmethyl-5,6-difluoro-1H-benzoimidazol-2-yl)-phenyl]-3-fluoro-4-(1H-tetrazol-5-yl)-benzamide] yielded an IC50 of 0.0006 µM. Compared with the last molecule, the IC50 is about 2500-fold lower.

`O=C(O)c1ccc(CCc2ccccc2-c2nc3ccccc3n2CC2CCCCC2)cc1` [Example 78, 4-{2-[2-(1-Cyclohexylmethyl-1H-benzoimidazol-2-yl)-phenyl]-ethyl}-benzoic acid] gave an IC50 of 0.09 µM.

The molecule `O=C(O)CCc1ccc(Cn2c(-c3cccnc3OCc3ccccc3Cl)nc3cc(F)c(F)cc32)cc1` [Example 17, 3-(4-{2-[2-(2-Chloro-benzyloxy)-pyridin-3-yl]-5,6-difluoro-benzoimidazol-1-ylmethyl}-phenyl)-propionic acid] returned an IC50 of 10.2 µM.

Take `Fc1cc2nc(-c3ccc(Cl)cc3OCC3CCCCO3)n(Cc3ccc(-c4nnn[nH]4)cc3F)c2cc1F` (centres unmarked) [Example 93, 2-[4-Chloro-2-(tetrahydro-pyran-2-ylmethoxy)-phenyl]-5,6-difluoro-1-[2-fluoro-4-(1H-tetrazol-5-yl)-benzyl]-1H-benzoimidazole]: the IC50 is 0.06 µM. This IC50 lies about 170-fold lower than the previous one.

As for `O=C(O)C1CCC(Cn2c(-c3ccc(Cl)cc3OCC3CCCC3)nc3cc(F)c(F)cc32)CC1` (centres unmarked) [Example 66, 4-[2-(4-Chloro-2-cyclopentylmethoxy-phenyl)-5,6-difluoro-benzoimidazol-1-ylmethyl]-cyclohexane carboxylic acid], the IC50 amounted to 1.8 µM.

`Fc1cc2nc(-c3ccc(Cl)cc3OCC3CCCC3)n(Cc3ccc(-c4nnn[nH]4)cc3)c2cc1F` [Example 68, 2-(4-Chloro-2-cyclopentylmethoxy-phenyl)-5,6-difluoro-1-[4-(1H-tetrazol-5-yl)-benzyl]-1H-benzoimidazole] registered an IC50 of 0.04 µM.

`Fc1cc2nc(-c3cccnc3OCc3ccccc3Cl)n(Cc3cccc(Cl)c3)c2cc1F` [Example 11, 1-(3-Chloro-benzyl)-2-[2-(2-chloro-benzyloxy)-pyridin-3-yl]-5,6-difluoro-1H-benzoimidazole] came in with an IC50 of 0.8 µM.

Turning to `O=C(O)Cc1ccc(Cn2c(-c3ccc(Cl)cc3OCC3CCCC3)nc3cc(F)c(F)cc32)cc1` [Example 63, {4-[2-(4-Chloro-2-cyclopentylmethoxy-phenyl)-5,6-difluoro-benzoimidazol-1-ylmethyl]-phenyl}-acetic acid], the IC50 worked out at 0.7 µM. The IC50 values of the last two molecules are within 1.5-fold of each other.

The molecule `O=C(O)c1ccc(COc2cc(Cl)ccc2-c2nc3cc(F)c(F)cc3n2Cc2ccccc2)cc1` [Example 51, 4-[2-(1-Benzyl-5,6-difluoro-1H-benzoimidazol-2-yl)-5-chloro-phenoxymethyl]-benzoic acid] had a concentration for half-maximal inhibition (IC50) of 0.5 µM. This IC50 and that of the molecule before are within 1.5-fold of each other.

Consider `CC(C)(C)Cn1c(-c2ccc(Cl)cc2OCc2ccc(-c3nnn[nH]3)cc2F)nc2cc(F)c(F)cc21` [Example 46, 2-{4-Chloro-2-[2-fluoro-4-(1H-tetrazol-5-yl)-benzyloxy]-phenyl}-1-(2,2-dimethyl-propyl)-5,6-difluoro-1H-benzoimidazole], for which the IC50 is 0.4 µM.

For `O=C(O)COc1ccc(CCc2ccccc2-c2nc3ccccc3n2CC2CCCCC2)cc1` [Example 79, (4-{2-[2-(1-Cyclohexylmethyl-1H-benzoimidazol-2-yl)-phenyl]-ethyl}-phenoxy)-acetic acid], the IC50 came out at 0.08 µM.

As to `Fc1cc2nc(-c3ccc(Cl)cc3OCC3CCCC3)n(Cc3ccccc3)c2cc1F` [Example 49, 1-Benzyl-2-(4-chloro-2-cyclopentylmethoxy-phenyl)-5,6-difluoro-1H-benzoimidazole], the IC50 was found to be 1.1 µM.

`Fc1cc2nc(-c3cccnc3OCC3CC3)n(Cc3ccccc3)c2cc1F` [Example 8, 1-Benzyl-2-(2-cyclopropylmethoxy-pyridin-3-yl)-5,6-difluoro-1H-benzoimidazole] registered an IC50 of 5.6 µM.

The values are drawn from patent publication US8309581B2, “Benzimidazole derivatives” (Hoffmann-La Roche Inc., priority 2009, dated 2012).
